# Values quoted from earlier work as cited in patent US20180371365A1, “FABRIC SOFTENER COMPOSITIONS” (The Procter & Gamble Company, priority 2017, published 2018).
# Conditions: acidifying agents for compositions having pH 3.5 or greater
row,SMILES,pKa
1,CCCCCCCCC(=O)O [nonanoic acid],5.2
2,C=CCCCCCCCCC(=O)O [undecylenic acid],5.0
3,OCl [hypochlorous acid],7.0
4,"O=C(O)C=Cc1ccc(O)cc1 [p-coumaric acid, 4-hydroxy cinnamic acid]",4.6
5,CCCCCCC(=O)O [heptanoic acid],5.1
6,c1c[nH]cn1 [imidazole],7.0
